Assay results: patent US9296725B2, “Heterocyclyl pyrimidine analogues as TYK2 inhibitors” (Cellzome Limited, priority 2012, dated 2016)

Experiments:
TYK2 = molecular target: T1, TYK2 (Homo sapiens, UniProt P29597); experiment: Kinobeads assay, TYK2 (competition binding in mixed Molt4/Ramos cell lysate, dot blot detection); conditions: Kinobeads assay, Molt4/Ramos lysate; read-out: TYK2 Band (Kinobeads assay potency, IC50)
T1 construct: endogenous in cells; host or cells: Molt4 (ATCC CRL-1582) and Ramos (ATCC CRL-1596), mixed lysate 1:2
T1 sequence (P29597 whole entry): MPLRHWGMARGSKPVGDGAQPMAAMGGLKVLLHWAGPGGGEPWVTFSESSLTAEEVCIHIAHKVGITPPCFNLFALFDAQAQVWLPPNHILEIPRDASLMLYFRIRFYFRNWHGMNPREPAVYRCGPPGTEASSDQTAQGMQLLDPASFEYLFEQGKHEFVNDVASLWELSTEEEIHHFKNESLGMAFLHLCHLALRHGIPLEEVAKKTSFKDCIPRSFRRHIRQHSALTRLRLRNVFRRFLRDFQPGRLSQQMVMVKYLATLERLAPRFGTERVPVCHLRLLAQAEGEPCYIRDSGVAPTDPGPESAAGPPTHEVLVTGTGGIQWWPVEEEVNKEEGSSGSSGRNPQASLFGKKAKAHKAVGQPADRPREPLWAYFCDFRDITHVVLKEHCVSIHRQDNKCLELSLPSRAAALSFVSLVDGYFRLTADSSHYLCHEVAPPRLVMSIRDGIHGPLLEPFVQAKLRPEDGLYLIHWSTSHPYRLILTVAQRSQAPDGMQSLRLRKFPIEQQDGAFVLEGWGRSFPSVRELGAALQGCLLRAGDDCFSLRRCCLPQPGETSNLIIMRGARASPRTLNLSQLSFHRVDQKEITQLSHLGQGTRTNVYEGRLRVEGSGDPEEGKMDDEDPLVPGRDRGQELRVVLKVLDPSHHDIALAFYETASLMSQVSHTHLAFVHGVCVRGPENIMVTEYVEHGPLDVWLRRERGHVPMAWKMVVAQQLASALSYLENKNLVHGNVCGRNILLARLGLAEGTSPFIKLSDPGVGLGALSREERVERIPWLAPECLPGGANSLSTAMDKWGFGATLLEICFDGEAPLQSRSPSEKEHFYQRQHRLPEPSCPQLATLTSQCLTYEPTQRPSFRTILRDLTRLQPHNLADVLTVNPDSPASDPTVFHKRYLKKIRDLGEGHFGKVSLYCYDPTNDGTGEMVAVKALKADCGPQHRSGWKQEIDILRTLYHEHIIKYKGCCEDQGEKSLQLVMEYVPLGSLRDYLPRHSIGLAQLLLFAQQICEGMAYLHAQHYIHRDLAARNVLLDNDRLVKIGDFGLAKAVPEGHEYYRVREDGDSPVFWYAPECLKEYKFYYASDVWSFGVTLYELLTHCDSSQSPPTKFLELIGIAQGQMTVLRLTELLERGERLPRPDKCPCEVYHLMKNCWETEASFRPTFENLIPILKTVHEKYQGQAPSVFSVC
Protocol: (§1) The compounds of the present invention as described in the previous examples were tested in a Kinobeads™ assay as described for ZAP-70 (WO-A 2007/137867). Briefly, test compounds (at various concentrations) and the affinity matrix with the immobilized aminopyrido-pyrimidine ligand 24 were added to cell lysate aliquots and allowed to bind to the proteins in 10 the lysate sample. After the incubation time the beads with captured proteins were separated from the lysate. Bound proteins were then eluted and the presence of TYK2 and JAK2 was detected and quantified using specific antibodies in a dot blot procedure and the Odyssey infrared detection system. Dose response curves for individual kinases were generated and IC50 values calculated. Kinobeads™ assays have been previously described (WO-A 2007/137867; WO-A 2006/134056).
(§2) The affinity matrix was washed two times with 15 mL of 1×DP buffer containing 0.2% NP40 (IGEPAL® CA-630, Sigma, #13021) and then resuspended in 1×DP buffer containing 0.2% NP40 (3% beads slurry). 5×DP buffer: 250 mM Tris-HCl pH 7.4, 25% Glycerol, 7.5 mM MgCl2, 750 mM NaCl, 5 mM Na3VO4; filter the 5×DP buffer through a 0.22 μm filter and store in aliquots at −80° C. The 5×DP buffer is diluted with H2O to 1×DP buffer containing 1 mM DTT and 25 mM NaF.
(§3) Stock solutions of test compounds were prepared in DMSO. In a 96 well plate 30 μL solution of diluted test compounds at 5 mM in DMSO were prepared. Starting with this solution a 1:3 dilution series (9 steps) was prepared. For control experiments (no test compound) a buffer containing 2% DMSO was used.
(§4) Molt4 cells (ATCC catalogue number CRL-1582) and Ramos cells (ATCC catalogue number CRL-1596) were grown in 1 L Spinner flasks (Integra Biosciences, #182101) in suspension in RPMI 1640 medium (Invitrogen, #21875-034) supplemented with 10% Fetal Bovine Serum (Invitrogen) at a density between 0.15×10^6 and 1.2×10^6 cells/mL. Cells were harvested by centrifugation, washed once with 1×PBS buffer (Invitrogen, #14190-094) and cell pellets were frozen in liquid nitrogen and subsequently stored at −80° C. Cells were homogenized in a Potter S homogenizer in lysis buffer: 50 mM Tris-HCl, 0.8% NP40, 5% glycerol, 150 mM NaCl, 1.5 mM MgCl2, 25 mM NaF, 1 mM sodium vanadate, 1 mM DTT, pH 7.5. One complete EDTA-free tablet (protease inhibitor cocktail, Roche Diagnostics, 1873580) per 25 mL buffer was added. The material was dounced 10 times using a mechanized POTTER S, transferred to 50 mL falcon tubes, incubated for 30 minutes on ice and spun down for 10 minutes at 20,000 g at 4° C. (10,000 rpm in Sorvall SLA600, precooled). The supernatant was transferred to an ultracentrifuge (UZ)-polycarbonate tube (Beckmann, 355654) and spun for 1 hour at 100.000 g at 4° C. (33.500 rpm in Ti50.2, precooled). The supernatant was transferred again to a fresh 50 mL falcon tube, the protein concentration was determined by a Bradford assay (BioRad) and samples containing 50 mg of protein per aliquot were prepared. The samples were immediately used for experiments or frozen in liquid nitrogen and stored frozen at −80° C.
(§5) Cell lysate (approximately 50 mg protein per plate) was thawed in a water bath at room temperature and then stored on ice. To the thawed cell lysate 1×DP 0.8% NP40 buffer containing protease inhibitors (1 tablet for 25 mL buffer; EDTA-free protease inhibitor cocktail; Roche Diagnostics 1873580) was added in order to reach a final protein concentration of 10 mg/mL total protein. The diluted cell lysate was stored on ice. Mixed Molt4/Ramos lysate was prepared by combining one volume of Molt4 lysate and two volumes of Ramos lysate (ratio 1:2).
(§6) To a 96 well filter plate (Multiscreen HTS, BV Filter Plates, Millipore #MSBVN1250) were added per well: 100 μL affinity matrix (3% beads slurry), 3 μL of compound solution, and 50 μL of diluted lysate. Plates were sealed and incubated for 3 hours in a cold room on a plate shaker (Heidolph tiramax 1000) at 750 rpm. […]

JAK2 = molecular target: T2, JAK2 (Homo sapiens, UniProt O60674); experiment: Kinobeads assay, JAK2 (competition binding in mixed Molt4/Ramos cell lysate, dot blot detection); conditions: read-out: JAK2 Band (Kinobeads assay potency, IC50)
T2 construct: endogenous in cells; host or cells: Molt4 (ATCC CRL-1582) and Ramos (ATCC CRL-1596), mixed lysate 1:2
T2 sequence (O60674 whole entry): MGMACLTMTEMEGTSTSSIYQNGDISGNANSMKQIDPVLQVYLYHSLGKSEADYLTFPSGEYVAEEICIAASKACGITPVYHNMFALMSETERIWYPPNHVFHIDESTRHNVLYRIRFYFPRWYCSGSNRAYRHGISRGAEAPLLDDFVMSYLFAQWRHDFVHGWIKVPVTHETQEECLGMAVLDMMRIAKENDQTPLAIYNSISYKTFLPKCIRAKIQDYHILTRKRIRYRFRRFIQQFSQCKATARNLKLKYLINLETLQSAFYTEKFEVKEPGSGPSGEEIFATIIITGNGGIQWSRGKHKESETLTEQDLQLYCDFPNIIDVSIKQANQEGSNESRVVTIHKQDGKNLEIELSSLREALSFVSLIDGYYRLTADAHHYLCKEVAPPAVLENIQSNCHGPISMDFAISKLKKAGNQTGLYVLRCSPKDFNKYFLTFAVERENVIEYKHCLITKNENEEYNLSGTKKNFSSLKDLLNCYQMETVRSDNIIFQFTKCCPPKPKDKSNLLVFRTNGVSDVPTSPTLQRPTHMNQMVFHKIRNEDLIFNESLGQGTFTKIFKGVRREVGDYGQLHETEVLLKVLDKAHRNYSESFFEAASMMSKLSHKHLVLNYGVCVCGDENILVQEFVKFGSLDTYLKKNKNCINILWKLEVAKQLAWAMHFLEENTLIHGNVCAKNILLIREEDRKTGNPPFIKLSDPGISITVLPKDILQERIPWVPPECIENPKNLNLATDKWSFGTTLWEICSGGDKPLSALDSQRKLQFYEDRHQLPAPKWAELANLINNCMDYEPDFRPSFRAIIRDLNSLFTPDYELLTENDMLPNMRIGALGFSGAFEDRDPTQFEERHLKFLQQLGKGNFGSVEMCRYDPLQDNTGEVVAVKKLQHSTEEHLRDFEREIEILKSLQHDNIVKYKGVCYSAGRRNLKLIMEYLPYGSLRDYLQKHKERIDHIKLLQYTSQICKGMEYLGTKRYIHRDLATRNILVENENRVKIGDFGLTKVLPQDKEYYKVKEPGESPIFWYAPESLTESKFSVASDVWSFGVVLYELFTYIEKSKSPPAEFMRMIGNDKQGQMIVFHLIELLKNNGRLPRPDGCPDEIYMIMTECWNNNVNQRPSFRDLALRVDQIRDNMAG
Protocol: as §1, §2, §3, §4, §5, §6

Which IC50 (TYK2) does the source give for `CNC(=O)Cn1cc(Nc2ncc(Cl)c(NCc3cc(F)cc(C(F)(F)F)c3)n2)cn1` [Example I-189] here?
Its IC50 is 0.1 to 1 µM.

What about the IC50 (JAK2) of the same compound?
Its IC50 is 1 to 10 µM.

`Cc1cnc(Nc2cnn(CC(=O)N3CCOCC3)c2)nc1NCc1cccc(OC(F)F)c1` [Example I-23] was tested. Which IC50 (TYK2) did it give?
The IC50 was ≤ 0.01 µM.

What about the IC50 (JAK2) of the same compound?
Its IC50 is 1 to 10 µM.

How did the IC50 (TYK2) turn out when `COc1ccc(F)c(CNc2nc(Nc3cnn(CC(=O)N(C)C)c3)ncc2F)c1F` [Example I-13] was run?
Its IC50 is ≤ 0.01 µM.

What about the IC50 (JAK2) of the same compound?
The IC50 was 1 to 10 µM.

`CN1CCC(n2cc(Nc3ncc(Cl)c(NCc4ccccc4)n3)cn2)C1=O` (centres unmarked) [Example I-253] was tested. Which IC50 (TYK2) did it give?
Its IC50 is 0.1 to 1 µM.

What about the IC50 (JAK2) of the same compound?
The IC50 was 0.1 to 1 µM.

How did the IC50 (TYK2) turn out when `CCOc1ccc(F)c(CNc2nc(Nc3cnn(CC(N)=O)c3)ncc2Cl)c1F` [Example I-267] was run?
The IC50 was 0.01 to 0.1 µM.

And the IC50 (JAK2)?
Its IC50 is 0.1 to 1 µM.

For `OCCn1cc(Nc2ncc(Cl)c(NCc3ccccn3)n2)cn1` [Example I-247], which IC50 (TYK2) is on record?
The IC50 was 1 to 10 µM.

What about the IC50 (JAK2) of the same compound?
The IC50 was 0.1 to 1 µM.

Which results are given for `Cc1cnc(Nc2cnn(CC(=O)N3CCOC(C)(C)C3)c2)nc1NCc1c(F)cc(F)cc1F` [Example I-34]?
IC50 (TYK2): ≤ 0.01 µM; IC50 (JAK2): 1 to 10 µM

Which results are given for `Fc1ccc(F)c(CNc2nc(Nc3cnn(C(F)F)c3)ncc2Cl)c1` [Example I-223]?
IC50 (TYK2): 0.1 to 1 µM; IC50 (JAK2): 0.1 to 1 µM

How did the IC50 (TYK2) turn out when `CNS(=O)(=O)c1ccccc1CNc1nc(Nc2cnn(CCO)c2)ncc1Cl` [Example I-472] was run?
The IC50 was 0.01 to 0.1 µM.

What about the IC50 (JAK2) of the same compound?
The IC50 was 0.1 to 1 µM.

How did the IC50 (TYK2) turn out when `OCCn1cc(Nc2ncc(Cl)c(NCc3ccccc3F)n2)cn1` [Example I-174] was run?
The IC50 was 0.01 to 0.1 µM.

What about the IC50 (JAK2) of the same compound?
Its IC50 is 0.1 to 1 µM.

Which results are given for `COc1cccc(CNc2nc(Nc3cnn(CCO)c3)ncc2Cl)c1` [Example I-186]?
IC50 (TYK2): 0.1 to 1 µM; IC50 (JAK2): 1 to 10 µM

How did the IC50 (TYK2) turn out when `Cc1cnc(Nc2cnn(CC(=O)O)c2)nc1NCc1c(F)cc(F)cc1F` [Example I-306] was run?
The IC50 was 0.01 to 0.1 µM.

What about the IC50 (JAK2) of the same compound?
The IC50 was 1 to 10 µM.

Which IC50 (TYK2) does the source give for `CC(C)NC(=O)Cn1cc(Nc2ncc(F)c(NCc3c(F)cccc3F)n2)cn1` [Example I-66] here?
The IC50 was ≤ 0.01 µM.

What about the IC50 (JAK2) of the same compound?
The IC50 was 1 to 10 µM.

Which results are given for `Cc1cnc(Nc2cnn(CC(=O)NC3CCOC3)c2)nc1NCc1c(F)cc(F)cc1F` (centres unmarked) [Example I-37]?
IC50 (TYK2): 0.01 to 0.1 µM; IC50 (JAK2): 0.1 to 1 µM

`Cn1cc(Nc2ncc(Cl)c(NCc3cccc(C#N)c3)n2)cn1` [Example I-159] was tested. Which IC50 (TYK2) did it give?
The IC50 was 0.01 to 0.1 µM.

What about the IC50 (JAK2) of the same compound?
Its IC50 is 1 to 10 µM.

`Cc1cnc(Nc2cnn(CC(=O)O)c2)nc1NCc1c(F)ccc(F)c1F` [Example I-424] was tested. Which IC50 (TYK2) did it give?
The IC50 was 0.01 to 0.1 µM.

And the IC50 (JAK2)?
The IC50 was 0.1 to 1 µM.

For `Cn1cc(Nc2ncc(Cl)c(NCc3cc(OC(F)F)ccc3F)n2)cn1` [Example I-412], which IC50 (TYK2) is on record?
The IC50 was 0.01 to 0.1 µM.

And the IC50 (JAK2)?
Its IC50 is 1 to 10 µM.

Which IC50 (TYK2) does the source give for `CC(C)N(C)C(=O)Cn1cc(Nc2nccc(NCc3c(F)cc(F)cc3F)n2)cn1` [Example I-317] here?
Its IC50 is 0.01 to 0.1 µM.

What about the IC50 (JAK2) of the same compound?
Its IC50 is > 10 µM.

What does the source list for `O=C(Cn1cc(Nc2nccc(NCc3c(F)ccc(F)c3F)n2)cn1)NC1CC1` [Example I-144]?
IC50 (TYK2): ≤ 0.01 µM; IC50 (JAK2): 1 to 10 µM

How did the IC50 (TYK2) turn out when `C[C@@H](C(N)=O)n1cc(Nc2ncc(Cl)c(NCc3ccccc3)n2)cn1` [Example I-291] was run?
Its IC50 is 0.1 to 1 µM.

And the IC50 (JAK2)?
The IC50 was 1 to 10 µM.

What does the source list for `C[C@H](CO)NC(=O)Cn1cc(Nc2nccc(NCc3c(F)ccc(F)c3F)n2)cn1` [Example I-143]?
IC50 (TYK2): 0.01 to 0.1 µM; IC50 (JAK2): 1 to 10 µM

Which results are given for `Cn1cc(Nc2ncc(Cl)c(NCc3cccc(CS(C)(=O)=O)c3)n2)cn1` [Example I-442]?
IC50 (TYK2): 1 to 10 µM; IC50 (JAK2): 1 to 10 µM

With `O=C(Cn1cc(Nc2nccc(NCc3c(F)cc(F)cc3F)n2)cn1)N[C@H]1C[C@H]1F` [Example I-454] as the compound, how does the IC50 (TYK2) read?
The IC50 was 0.01 to 0.1 µM.

What about the IC50 (JAK2) of the same compound?
Its IC50 is 1 to 10 µM.

`CCOc1ccc(F)c(CNc2nc(Nc3cn[nH]c3)ncc2Cl)c1F` [Example I-368] was tested. Which IC50 (TYK2) did it give?
The IC50 was 0.01 to 0.1 µM.

And the IC50 (JAK2)?
The IC50 was 1 to 10 µM.

How did the IC50 (TYK2) turn out when `COc1c(F)cccc1CNc1nc(Nc2cnn(CC(N)=O)c2)ncc1Cl` [Example I-404] was run?
The IC50 was 0.1 to 1 µM.

And the IC50 (JAK2)?
The IC50 was 0.1 to 1 µM.

With `Fc1cccc(CNc2nc(Nc3cn[nH]c3)ncc2Cl)c1` [Example I-370] as the compound, how does the IC50 (TYK2) read?
Its IC50 is 0.1 to 1 µM.

And the IC50 (JAK2)?
Its IC50 is 0.1 to 1 µM.

How did the IC50 (TYK2) turn out when `Cc1cnc(Nc2cnn(CC(=O)N3CCOCC3)c2)nc1NCc1ccccc1` [Example I-296] was run?
Its IC50 is 0.01 to 0.1 µM.

What about the IC50 (JAK2) of the same compound?
The IC50 was 1 to 10 µM.

With `Cc1cnc(Nc2cnn(CC(=O)NC3CC3)c2)nc1NCc1cc(F)cc(F)c1F` [Example I-101] as the compound, how does the IC50 (TYK2) read?
The IC50 was 0.01 to 0.1 µM.

What about the IC50 (JAK2) of the same compound?
Its IC50 is 0.1 to 1 µM.
